Results as given in ChEMBL document CHEMBL1201862, “PubChem BioAssay data set” (2004).
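Five compound concentrations were applied to cells in 96-well plates for 48 hours; endpoints were derived by simple linear interpolation of the resulting dose-response curve. Abbreviation: GI50, concentration required for 50% inhibition of growth.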 Activity calls are given as the source filed them. No stated cut-off is given here; in the data, active = GI50 up to about 1.1 µM and inactive = higher.

Tests used:
Assay in all cases: DTP human tumour cell line panel, 48 h
786-0 = test system: 786-0
HT-29 = test system: HT-29
KM12 = test system: KM12
MOLT-4 = test system: MOLT-4
NCI-H226 = test system: NCI-H226
NCI/ADR-RES = test system: NCI/ADR-RES
OVCAR-4 = test system: OVCAR-4
OVCAR-8 = test system: OVCAR-8
RPMI-8226 = test system: RPMI-8226
RXF 393 = test system: RXF 393
SF-539 = test system: SF-539
SK-MEL-28 = test system: SK-MEL-28
SK-MEL-5 = test system: SK-MEL-5
SK-OV-3 = test system: SK-OV-3
SR = test system: SR
T47D = test system: T47D
UACC-257 = test system: UACC-257
UACC-62 = test system: UACC-62
LOX IMVI = test system: LOX IMVI
UO-31 = test system: UO-31

Measured: GI50

COC(=O)c1c(C)c2c(c(C)c1O)OC(=O)c1c(C)cc(O)c(C=O)c1O2
inactive: 786-0 > 100 µM | HT-29 > 100 µM | KM12 > 100 µM | MOLT-4 > 100 µM | NCI-H226 > 100 µM | NCI/ADR-RES > 100 µM | OVCAR-4 > 100 µM | OVCAR-8 > 100 µM | RPMI-8226 > 100 µM | RXF 393 > 100 µM | SF-539 > 100 µM | SK-MEL-28 > 100 µM | SK-MEL-5 > 100 µM | SK-OV-3 20 µM | SR > 100 µM | T47D > 100 µM | UACC-257 > 100 µM | UACC-62 45.3 µM

CN1CCN(C2CC(=O)c3c(Cl)sc(Cl)c32)CC1 (stereo unspecified)
inactive: 786-0 7.21 µM | HT-29 11.4 µM | KM12 10.8 µM | LOX IMVI 1.8 µM | MOLT-4 5.48 µM | NCI-H226 > 42.8 µM | NCI/ADR-RES 16.4 µM | OVCAR-4 14.6 µM | OVCAR-8 7.66 µM | RPMI-8226 4.36 µM | SF-539 17.3 µM | SK-MEL-28 7.57 µM | SK-MEL-5 30.1 µM | SK-OV-3 > 54.6 µM | SR 4 µM | T47D 18.5 µM | UACC-257 27.1 µM | UACC-62 16.3 µM | UO-31 7.6 µM

O=C1Nc2cccc(Cl)c2/C1=C\c1c(Cl)nc2sccn12
inactive: 786-0 9.31 µM | HT-29 > 100 µM | KM12 > 100 µM | LOX IMVI 63.8 µM | MOLT-4 > 100 µM | NCI/ADR-RES 55.1 µM | OVCAR-8 31.1 µM | RPMI-8226 > 100 µM | RXF 393 13.7 µM | SF-539 5.2 µM | SK-MEL-28 > 100 µM | SK-MEL-5 > 100 µM | SK-OV-3 14.9 µM | SR > 100 µM | T47D 44.6 µM | UACC-257 > 100 µM | UACC-62 31.5 µM | UO-31 27.7 µM

O=C1C=CC(=O)c2c1ccc1c3ccccc3n(Cc3ccc([N+](=O)[O-])cc3)c21
inactive: 786-0 > 100 µM | HT-29 > 100 µM | KM12 > 100 µM | MOLT-4 20.3 µM | NCI-H226 > 100 µM | NCI/ADR-RES > 100 µM | OVCAR-4 > 100 µM | OVCAR-8 > 100 µM | RPMI-8226 > 10 µM | RXF 393 > 100 µM | SF-539 > 100 µM | SK-MEL-28 > 100 µM | SK-MEL-5 > 100 µM | SK-OV-3 > 100 µM | SR 13.8 µM | T47D 52.8 µM | UACC-257 > 100 µM | UACC-62 > 100 µM | UO-31 > 100 µM

Cc1ccc(Cc2n[nH]c(=O)n2Nc2ccccc2)cc1
inactive: 786-0 > 100 µM | HT-29 > 100 µM | KM12 > 100 µM | LOX IMVI > 100 µM | MOLT-4 > 100 µM | NCI-H226 > 100 µM | NCI/ADR-RES > 100 µM | OVCAR-4 > 100 µM | OVCAR-8 > 100 µM | RPMI-8226 > 100 µM | SF-539 > 100 µM | SK-MEL-28 92.3 µM | SK-MEL-5 > 100 µM | SK-OV-3 > 100 µM | SR > 100 µM | T47D 89.9 µM | UACC-257 > 100 µM | UACC-62 > 100 µM | UO-31 68.2 µM

COC(=O)/C=C\C(C#N)(C#N)/N=C/c1cccc(OC)c1
inactive: 786-0 3.51 µM | HT-29 3.77 µM | KM12 16.4 µM | LOX IMVI 7.16 µM | MOLT-4 1.9 µM | NCI-H226 14.3 µM | NCI/ADR-RES 14.4 µM | OVCAR-4 6.67 µM | OVCAR-8 3.13 µM | RPMI-8226 2.71 µM | RXF 393 3.18 µM | SF-539 2.53 µM | SK-MEL-28 14.3 µM | SK-MEL-5 16.8 µM | SK-OV-3 25.3 µM | T47D 4.8 µM | UACC-257 14 µM | UACC-62 15.2 µM | UO-31 2.74 µM

CCOP(=O)(OCC)c1ccc(=O)[nH]c1-c1cccs1
inactive: 786-0 > 100 µM | HT-29 > 100 µM | KM12 > 100 µM | MOLT-4 > 100 µM | NCI-H226 > 100 µM | NCI/ADR-RES > 100 µM | OVCAR-4 > 100 µM | OVCAR-8 > 100 µM | RPMI-8226 > 100 µM | RXF 393 > 100 µM | SF-539 > 100 µM | SK-MEL-28 > 100 µM | SK-MEL-5 > 100 µM | SK-OV-3 > 100 µM | SR > 100 µM | T47D > 100 µM | UACC-257 > 100 µM | UACC-62 > 100 µM | UO-31 > 100 µM
